Measurements taken from PMC11329928, “Design, synthesis and structure-activity relationship (SAR) studies of an unusual class of non-cationic fatty amine-tripeptide conjugates as novel synthetic antimicrobial agents” (Frontiers in Pharmacology, 2024).
Counter-ions that a name gives are not always drawn. Like-named read-outs stand apart in the source and are kept apart here.

Key:
[1] = test system: S. pneumoniae D39; assay type: cell-based, Streptococcus pneumoniae; conditions: for SC (stationary concentration, Δlog = 0), S. pneumoniae D39 / EC50 / Δlogmax, S. pneumoniae D39: 1 h treatment, Hill fit; for SC (stationary concentration, Δlog = 0), S. pneumoniae D39: C + Y medium, added at T1, 10^7–10^8 CFU/mL, CFU vs untreated controls; for EC50 / Δlogmax, S. pneumoniae D39: C + Y; for EC50: read-out: K 1/2 (concentration yielding half-variation in Δlogmax), S. pneumoniae D39 (converted); for Reduction of the number of viable cells at 3 × SC, S. pneumoniae: after 1-h incubation at 3 × SC values; for Δlogmax, S. pneumoniae D39: maximum variation in viability
Text: First, the substitution of the fatty amino chain of 18 carbon atoms of the reference compound DICAM 2 by either an OMe group (methylated tripeptide DICAM 5) or an amine with 12 carbon atoms (DICAM 9) abolished the activity against all three pathogens. However, the activity remained intact when the chain of the fatty amine of prototypes DICAMs 1 and 4 was two carbon atoms shorter (DICAM 10 and DICAM 12, respectively), based on S. pneumoniae and S. pyogenes results. […] Third, Glu and Ala were tolerated as C-terminal residues of the lipotripeptides. […] In addition, deletion of the C-terminal Glu (DICAM 13) eradicated the activity against S. pneumoniae and S. aureus. However, a delay and small inhibition of S. pyogenes ^T growth was still observed. Fourth, Glu (DICAMs 19 and 20) and Orn (DICAMs 21 and 22) were tolerated as N-terminal residues, with the impact of these modifications being pathogen-dependent. […] SAR studies continued by measuring the dose dependence of DICAM’s activity at T1 with all the compounds found to be active against S. pyogenes or S. aureus in the initial screening, and all but one compound in the case of S. pneumoniae. The OD values of bacterial cultures were monitored after DICAM addition, and the decrease in the number of viable bacteria was measured relative to controls (Figures 4–6; Supplementary Figure S1). As antibacterial efficacy may decline with the bacterium dose in the inoculum ([Belley et al., 2009]; [Udekwu et al., 2009]; [Luca et al., 2013]), the assays were performed using the bacterial concentrations necessary for the fluorescence experiments in Section 2.3 (10^7–10^8 CFU/mL). At these high bacterial densities, MICs were determined as the DICAM concentration at which bacteria neither grow nor are killed (the stationary concentration (SC)), following [Udekwu et al., 2009]. By fitting the logarithmic plot of cell viability decrease vs. the DICAM dose to a Hill function (see Section 5.2.3.1) we were able to determine the maximum variation in viability (Δlogmax = ∆log f - ∆log 0, where ∆log f and ∆log 0 are the upper and lower limits of Δlog) in the assay conditions, the SC concentration (Δlog = 0), the dose required for half-variation in Δlogmax (K 1/2), and the cooperativity of the antimicrobial effect (N H).
Susceptibility to DICAMs was first tested by growth-inhibition assays at 50 and 100 μM of compound. Briefly, working solutions at 5 mM or 10 mM DICAM in pure DMSO were prepared from DICAM stocks (40 mM in pure DMSO) and diluted with fresh culture medium to 5× the desired final concentration. Aliquots (50 µL) of these solutions were added to 200 µL of bacterium cultures grown to early exponential phase (OD550/600 c. a. 0.15–0.2 in sterile 96-well plates (Cultek, Spain). Incubation continued for 10 h at 37°C and turbidity (OD550/600) values were measured every 20 min to monitor growth and lysis, using a VersaMax microplate reader (Molecular Devices; United Kingdom). Next, the activity dependence on DICAM’s dose was examined by measuring the turbidity of treated and untreated cultures as a function of time. Also, the decay of bacterial viability (CFU/mL) at selected times of treatment was assessed by colony counting on LB-agar or TSA plates after overnight incubation at 37°C. By default, 10 μL of 10-fold serially diluted samples were plated, which set the lower detection limit at 10^2 CFU/mL (10^1 CFU/mL when 100 μL of the undiluted sample was seeded).
As antibacterial efficacy may decline with the bacterium dose in the inoculum ([Belley et al., 2009]; [Udekwu et al., 2009]; [Luca et al., 2013]), activity assays were performed using the bacterial concentrations required for the fluorescence experiments in Section 2.3 (10^7–10^8 CFU/mL). At such bacterial densities, MICs were determined as the DICAM concentration at which bacteria neither grow nor are killed under assay conditions (the stationary concentration (SC)), as indicated in Section 2.2. […]

[2] = RP-HPLC retention time used to determine hydrophobicity; assay type: physicochemical; conditions: analytical RP-HPLC, C18 Sunfire column (4.6 mm × 150 mm, 3.5 μm); A = 0.05% TFA in water, B = acetonitrile; 10% to 100% B in 20 min then isocratic 100% B 10 min; 217 and 254 nm; used as measure of hydrophobicity
Protocol: The purity of the lipopeptides was checked by analytical RP-HPLC on an Agilent Infinity instrument equipped with a Diode Array and a C18 Sunfire column (4.6 mm × 150 mm, 3.5 μm). As mobile phase A:B mixtures were used, where A = 0.05% TFA in water and B = acetonitrile. The samples were analyzed at 217 and 254 nm in a gradient from 10% of B to 100% of B in 20 min followed by isocratic 100% of B in 10 min.
Retention times were used to determine the hydrophobicity ([Neubauer et al., 2020]). HRMS (EI+) was carried out in an Agilent 6,520 Accurate-Mass Q-TOF LC/MS spectrometer using water/acetonitrile mixtures. Results can be found in Supplementary Section S3, S4.

[3] = test system: human fetal lung fibroblasts IMR-90; assay type: cell-based
Protocol: DICAM’s cytotoxicity was determined employing a modified MTT assay as described elsewhere ([Antúnez-Mojica et al., 2016]) using human lung carcinoma epithelial cells A549, human fetal lung fibroblasts IMR-90, and human HeLa cervix carcinoma cells treated with increasing concentrations of DICAMs (0.8–200 µM range). A549 cells were grown in RPMI 1640 (Gibco; Fisher Scientific, Spain) supplemented with 10% FCS, 2 mM glutamine, 100 IU/mL penicillin and 100 μg/mL streptomycin. IMR-90 and HeLa cells were cultured in DMEM (Gibco; Fisher Scientific, Spain) supplemented with 10% FCS, 2 mM L-glutamine, 1 mM pyruvate, […] penicillin, 100 μg/mL streptomycin and 40 μg/mL gentamycin. Cell viability was assessed after 48 h exposure to DICAMs. Vinblastine was used as a positive control. IC50 value is the concentration that gives 50% inhibition of cell growth and was determined using SigmaPlot (Systat) fitting to a Four Parameter Logistic curve.

[4] = S. pneumoniae D39, within 60 min
[5] = S. pneumoniae D39, 50 μM (Supplementary Figure S1F), C+Y, 37°C

Compound | SC (stationary concentration, Δlog = 0), S. pneumoniae D39 ([1]; 37°C) | Retention time [2] [min] | IC50 ([3]; 48 h) [µM] | EC50 ([1]; 37°C) [µM] | Reduction of the number of viable cells at saturating doses [1, 4] [log-units] | Reduction of the number of viable cells at 3 × SC, S. pneumoniae [1] | Δlogmax, S. pneumoniae D39 ([1]; 37°C) [logarithmic units] | IC50 ([3]; modified MTT, 48 h exposure, 0.8–200 µM, four parameter logistic fit, ± SD, at least three independent experiments, read-out: IC50 IMR-90) [µM] | Cell killing after 60 min of incubation [1, 5] [%] | Time to nearly sterilize the culture ([1]; S. pneumoniae D39, 50 μM, C+Y, 37°C, legend of Supplementary Figure S1F) | Time required to reduce the viability by 99.99% [1, 5] [h] | Viability decrease in 1 h [1, 5] | Bacterial viability reduction at 10 μM ([1]; S. pneumoniae D39, within 60 min, 10 μM) [%] | Bacterial viability reduction at ≈ 5 μM ([1]; S. pneumoniae D39, within 60 min, ≈ 5 μM) [%]
CCCCCCCCCCCCCCCCCCNC(=O)[C@H](C)NC(=O)[C@H]1CCCN1C(=O)[C@H](C)N [DICAM 14, Ala- Pro -Ala-NH-C18H37 · HCl] | ∼33 µM | 19.50 | 7.69 ± 0.06 |  |  |  |  |  |  |  |  |  |  | 
Ala - Pro -Glu-NH-C18H37 · HCl [DICAM 23] | 2.9 ± 0.8 µM | 19.31 |  | 8.6 ± 0.3 | ≥ 4.6 | 99.2%–99.8 | 5.4 ± 0.2 | 57 ± 2 |  |  |  |  |  | 
CCCCCCCCCCCCCCCCCCNC(=O)[C@H](CCC(=O)O)NC(=O)[C@H]1CCCN1C(=O)[C@H](C)N [DICAM 4, Ala- Pro -Glu-NH-C18H37 ·HCl] | 4 ± 1.5 µM | 19.24 | 65 ± 3 | 13 ± 2 | ≥ 4.6 | 99.2%–99.8 | 6.0 ± 0.4 |  | ≥ 99.999 | less than 1 h |  |  |  | 
CCCCCCCCCCCCCCCCCCNC(=O)[C@H](CCC(=O)O)NC(=O)[C@H]1CCCN1C(=O)[C@@H](N)CCCN [DICAM 22, Orn- Pro -Glu-NH-C18H37 · HCl] | 20 ± 8 µM | 16.91 | 58 ± 0.4 | 22 ± 8 |  |  | 1.4 ± 0.4 |  |  |  |  |  |  | 
CCCCCCCCCCCCCCCCCCNC(=O)[C@H](CCC(=O)O)NC(=O)[C@H]1CCCN1C(=O)[C@H](CC(N)=O)NC(=O)OCc1ccccc1 [DICAM 1, Cbz-Asn- Pro -Glu-NH-C18H37] | 2 ± 0.2 µM | 21.41 | 39 ± 1 | 3.8 ± 0.2 |  |  | 2.05 ± 0.03 |  |  |  | 2 to 2.5 | ≈ 90% |  | 
CCCCCCCCCCCCCCCCCCNC(=O)[C@H](CCC(=O)O)NC(=O)[C@H]1CCCN1C(=O)[C@H](CCCN)NC(=O)OCc1ccccc1 [DICAM 21, Cbz-Orn- Pro -Glu-NH-C18H37] | 8 ± 1 µM | 19.70 | 86 ± 15 | 9 ± 1 |  |  | 1.9 ± 0.1 |  |  |  |  |  |  | 
CCCCCCCCCCCCCCCCCCNC(=O)[C@H](CCC(=O)O)NC(=O)[C@H]1CCCN1C(=O)[C@@H](N)CCC(=O)O [DICAM 20, Glu- Pro -Glu-NH-C18H37 · HCl] | 3.0 ± 0.7 µM | 18.71 | 78.6 ± 0.1 | 4.4 ± 0.6 |  | 99.2%–99.8 | 3.0 ± 0.1 |  |  |  |  |  | > 99.5 | 
CCCCCCCCCCCCCCCCCCNC(=O)[C@H](CCC(=O)O)NC(=O)[C@H]1CCCN1C(=O)[C@H](C)NC(=O)OCc1ccccc1 [DICAM 3, Cbz-Ala- Pro -Glu-NH-C18H37] | 6.5 ± 0.5 µM | 21.42 | 75 ± 13 | 7.8 ± 0.4 |  |  | 1.51 ± 0.04 |  |  |  | 2 to 2.5 | ≈ 90% |  | 
CCCCCCCCCCCCCCCCNC(=O)[C@H](CCC(=O)O)NC(=O)[C@H]1CCCN1C(=O)[C@H](CC(N)=O)NC(=O)OCc1ccccc1 [DICAM 10, Cbz-Asn- Pro -Glu-NH-C16H33] | 3.4 ± 0.5 µM | 18.23 | 45 ± 1 | 6.5 ± 0.3 |  |  | 3.13 ± 0.06 |  |  |  | 2 to 2.5 | ≈ 90% |  | 
CCCCCCCCCCCCCCCCCCNC(=O)[C@H](CCC(=O)O)NC(=O)[C@H]1CCCN1C(=O)[C@H](CCC(=O)O)NC(=O)OCc1ccccc1 [DICAM 19, Cbz-Glu- Pro -Glu-NH-C18H37] | 3.0 ± 0.8 µM | 21.22 | 44 ± 1 | ~5 |  | 99.2%–99.8 | 3.0 ± 0.2 |  |  |  |  |  |  | > 99.5
CCCCCCCCCCCCCCCCCCNC(=O)[C@H](CCC(=O)O)NC(=O)[C@H]1CCCN1C(=O)[C@@H](N)CC(N)=O [DICAM 2, Asn- Pro -Glu-NH-C18H37 ·HCl] | 4.1 ± 0.6 µM | 12.14 | 46.7 ± 0.7 | 10.7 ± 0.4 | ≥ 4.6 | 99.2%–99.8 | 4.6 ± 0.1 |  |  |  |  |  |  | 
CCCCCCCCCCCCCCCCCCNC(=O)[C@H](CCC(=O)O)NC(=O)[C@H]1CCCN1C(=O)[C@H](C)NC(C)=O [DICAM 24, Ac-Ala- Pro -Glu-NH-C18H37] | 4 ± 0.8 µM | 21.23 | 43.8 ± 0.6 | 6.1 ± 0.6 |  |  | 2.2 ± 0.1 |  |  |  |  |  |  | 
